Measured values taken from patent US20130131069A1, “METHOD FOR TREATMENT OF SOLID MALIGNANCIES INCLUDING ADVANCED OR METASTATIC SOLID MALIGNANCIES” (Boehringer Ingelheim International GmbH, priority 2011, published 2013).

Legend:
[1] = Clinical trial: pharmacokinetics in patients; type: in vivo, human; conditions: 2-hr i.v. infusion days 1 and 8 every 3 weeks
Experimental: (§1) Sequential cohorts of 3-6 patients with advanced or metastatic solid malignancies received a 2-hr infusion of volasertib on days 1 and 8 every 3 weeks in a toxicity guided dose escalation study. There were 4 prespecified doses (50-200 mg).
(§2) 27 Asian patients with advanced solid malignancies were treated. […] MTD was 150 mg for above described schedule. The median number of initiated courses was 3 over all dose groups (range 1-21). […] Two patients with bladder cancer and melanoma, respectively had partial responses.

[2] = system: advanced or metastatic solid malignancies; assay: Clinical trial: toxicity guided dose escalation study, 2-hr infusion on days 1 and 8 every 3 weeks; type: in vivo
Experimental: as §1, §2

[3] = administered at two days during a 21 day treatment cycle

CC[C@@H]1C(=O)N(C)c2cnc(Nc3ccc(C(=O)N[C@H]4CC[C@H](N5CCN(CC6CC6)CC5)CC4)cc3OC)nc2N1C(C)C [Volasertib, N-[trans-4-[4-(cyclopropylmethyl)-1-piperazinyl]cyclohexyl]-4-[[(7R)-7-ethyl-5,6,7,8-tetrahydro-5-methyl-8-(1-methylethyl)-6-oxo-2-pteridinyl]amino]-3-methoxy-benzamide]
PK behavior [1]: multi-compartmental | clearance ([1]; human, in vivo, iv): 807 mL/min | half-life ([1]; human, in vivo, iv, read-out: mean terminal elimination half-life (converted)): 107 h | Vd ([1]; human, in vivo, iv, read-out: volume of distribution): 4500 L | MTD ([2]; 2-hr infusion on days 1 and 8 of 21 day cycle): 150 mg | patients with partial responses (bladder cancer and melanoma, respectively) ([2]; 27 patients treated, days 1 and 8 every 3 weeks): Two | patients achieved partial response (preliminary anti-tumor activity) [2, 3]: 1 patient | patients achieved stable disease [2, 3]: 10 patients | dose limiting toxicities (DLTs) ([2]; human, in vivo): reversible thrombocytopenia, neutropenia and febrile neutropenia
